Data on two compounds can be found in patent publication US7150967B2, “Fluorescent tags for amino acid and nucleic acid analysis” (University of Medicine & Dentistry of New Jersey, priority 2002, dated 2006).

The target in experiment [1] is bovine serum albumin (BSA) (Bos taurus, UniProt P02769). Briefly: Reaction with the thiol containing species bovine serum albumin, monitored by ultraviolet absorbance spectra. The following applies: BSA 0.1 μg, 2.5 μmol compound, 30 minutes at 37° C. How it is done: BSA (0.1 μg) was reacted with 2.5 μmol iodomercurio-H2DMP (IM-H2DMP) for 30 minutes at 37° C.
Sequence of bovine serum albumin (BSA) (P02769 25-607): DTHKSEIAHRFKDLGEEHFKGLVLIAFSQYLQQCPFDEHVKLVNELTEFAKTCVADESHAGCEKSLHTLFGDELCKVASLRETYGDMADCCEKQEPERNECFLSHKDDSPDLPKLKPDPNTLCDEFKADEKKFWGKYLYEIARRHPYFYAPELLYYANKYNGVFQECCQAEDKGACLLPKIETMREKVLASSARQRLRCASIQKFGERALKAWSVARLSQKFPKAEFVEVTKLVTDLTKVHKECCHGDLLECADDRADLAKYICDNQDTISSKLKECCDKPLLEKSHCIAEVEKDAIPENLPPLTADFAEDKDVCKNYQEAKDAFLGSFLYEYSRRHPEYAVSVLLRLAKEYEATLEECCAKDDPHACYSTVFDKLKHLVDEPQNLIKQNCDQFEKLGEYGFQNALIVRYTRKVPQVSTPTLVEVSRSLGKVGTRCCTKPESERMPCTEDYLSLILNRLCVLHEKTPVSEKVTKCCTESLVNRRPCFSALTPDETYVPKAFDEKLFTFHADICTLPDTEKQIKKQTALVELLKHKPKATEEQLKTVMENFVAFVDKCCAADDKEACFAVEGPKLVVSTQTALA
The next experiment addresses BSA (Bos taurus, UniProt P02769). Nature of the experiment: Detection of a protein on a 10% PAGE gel via formation of a fluorescent reaction product. Particulars: BSA 150 μg, 1.5 nmol compound, 30 minutes at 37° C. More on the design: species or system bovine. How it is done:
In these experiments, BSA (150 μg) was reacted with the mercurimethyl-dihydropsoralen 3-cyanomercurio-H2DMP (1.5 nmol) for 30 minutes at 37° C. The products were then run on a 10% PAGE gel to separate any reaction product from unreacted psoralen. The fluorescent BSA-mercurimethyl-dihydropsoralen reaction product was […].

Take `Cc1cc(=O)oc2c(C)c3c(cc12)CC([CH2][Hg][I])O3` (centres unmarked) [Compound P1, iodomercurio-H2DMP]: the “change in ultraviolet absorbance spectra (formation of new reaction product)” value in experiment [1] is “change in the ultraviolet absorbance spectra indicative of formation of a new reaction product was observed”. Take `CC(=O)[O][Hg][CH2]C1Cc2cc3c(C)c(C#N)c(=O)oc3c(C)c2O1` (centres unmarked) [Compound P6, 3-cyano-acetylmercurio-H2DMP]: the “ability to detect a protein on a gel via fluorescent reaction product” value on BSA is “demonstrated”.
